From PMC4122130 (Journal of neuroscience research, 2012) come the findings set out here.

This assay has as its target α7 nAChR (Homo sapiens, UniProt P36544). The assay can be described thus: whole-cell patch clamp, inhibition of […] ACh-evoked currents by […] 4R. It is filed as cell-based. Particulars: shsy5y cells.

Sequence of α7 nAChR (P36544 23-502): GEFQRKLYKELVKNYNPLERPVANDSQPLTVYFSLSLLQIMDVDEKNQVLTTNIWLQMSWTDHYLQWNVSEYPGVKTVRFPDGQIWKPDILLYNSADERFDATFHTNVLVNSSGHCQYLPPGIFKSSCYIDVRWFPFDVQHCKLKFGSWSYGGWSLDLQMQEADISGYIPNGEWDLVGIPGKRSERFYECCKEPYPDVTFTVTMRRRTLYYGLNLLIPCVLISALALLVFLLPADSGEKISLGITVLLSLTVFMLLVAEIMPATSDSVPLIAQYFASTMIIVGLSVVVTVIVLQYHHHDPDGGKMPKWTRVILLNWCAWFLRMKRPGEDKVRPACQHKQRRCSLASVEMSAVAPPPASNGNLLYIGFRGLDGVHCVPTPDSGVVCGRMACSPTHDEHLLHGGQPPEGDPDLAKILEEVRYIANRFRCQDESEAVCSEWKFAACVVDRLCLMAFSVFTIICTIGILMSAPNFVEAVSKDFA

As for `C/C1=C\[C@H](O)C[C@@](C)(O)/C=C/[C@H](C(C)C)CC/C(C)=C/CC1` [4R, (1S,2E,4R,6R,7E,11E)-cembra-2,7,11-triene-4,6-diol], the “% inhibition at 25 μM” value is reported as 82% ± 18% inhibition at 25 μM.
